Experimental data published in article PMC5602130, “Food and Sex-Related Impacts on the Pharmacokinetics of a Single-Dose of Ginsenoside Compound K in Healthy Subjects” (Frontiers in Pharmacology, 2017).
Where two headings read alike, the source gives them in different places. Marks after values point to notes of the source that are not given here.

Legend:
[1] = set-up: method as in unpublished; conditions: single oral dose at 800 mg; ref unpublished; cited from earlier work
[2] = Food-effect two-period crossover trial: plasma pharmacokinetics after a single 200 mg oral dose of Ginsenoside CK Tablets; assay type: in vivo, human; conditions: for AUC(0-inf) / AUC(0-t) / Tmax / Cmax / half-life / MRT inf / MRT last: human, plasma, po, 200 mg; for AUC(0-inf) / AUC(0-t) / Tmax / Cmax / half-life / MRT inf / MRT last / V/F: single oral 200 mg CK; for Tmax: median (range); for Cmax: read-out: Cmax; for half-life: read-out: t1/2 (converted)
Procedure: The food-effect trial was an open-label, randomized, two-period, two-treatment crossover trial, carried out from 15 January to 31 March 2015. Subjects (n = 24) were admitted to the clinical facility (Center of Clinical Pharmacology, the Third Xiangya Hospital, Central South University, Changsha, China) and randomized to receive a single 200 mg oral dose of Ginsenoside CK Tablets (4 × 50 mg tablets) either after a 10 h-fasting period or within 30 min after beginning the consumption of a recommended high-fat, high calorie breakfast (150 calories of protein, 250 calories of carbohydrates, 500 to 600 calories of fat; total calories approximately 800–1,000). Tablets were administered with 250 mL of water, to each subject, in each treatment period. Drinking was prohibited for 2 h before and after medication. Apart from this, the amount and time of drinking were not strictly controlled. Subjects had unified, standard meals 4 and 10 h after drug administration. The alternate treatment was conducted after a 14-day washout period.
Serial blood samples (5 mL) for PK assessment were collected from an indwelling catheter or by direct venipuncture prior to the administration (t = 0) and 0.25, 0.5, 1, 1.5, 2, 2.5, 3, 3.5, 4, 5, 6, 8, 12, 24, 36, 48, 72, and 96 h after the administration of ginsenoside CK. We inferred that these sampling times were sufficient for this trial, based on international guidelines (FDA, [2003]; CFDA, [2005]) and our previous results, since the sampling time is longer than at least three terminal half-lives of the drug. Additionally, the mean plasma concentrations of both CK and 20(S)-PPD at 96 h were considerably <1/20 of their Cmax even when the single oral dose at 800 mg (unpublished). Plasma was separated in blood collection tubes by centrifugation (3,000 rpm, 10 min) at 4°C within 1 h after sampling, transferred to labeled storage tubes and stored at −70°C pending workup and analysis.
Descriptive statistics of PK parameters were calculated using established non-compartmental methods, utilizing the WinNonLin version 6.1 software (Pharsight Corporation, USA). The PK parameters determined for each participant included apparent terminal half-life (t1/2), maximum plasma concentration (Cmax), time to Cmax (tmax), area under the plasma concentration-time curve from the time of administration up to the last time point with a measurable concentration post-dose (AUClast), AUC extrapolated to infinity (AUCinf), apparent volume of distribution (V/F), apparent plasma clearance (CL/F) after extravascular administration, mean residence time (MRTlast and MRTinf), and the cumulative excretion rate from urine. The t1/2 was estimated as (ln2)/K, where K represented the slope of the terminal phase of plasma concentration-time profile and was assessed with a weighting factor of 1, using least squares (log-linear regression of at least three data points). The Cmax and tmax were obtained from experimental observations. The values of AUC were calculated using conventional trapezoidal and log-trapezoidal methods and the extrapolated area (Rowland and Tozer, [1995]). CL/F and V/F were calculated as dose/AUCinf and (CL/F)/K, respectively. MRT was calculated as MRT = AUMC/AUC, where AUMC is the area under the first moment curve. The cumulative excretion rate was calculated as the amount of unchanged drug over a time interval in the urine divided by dose, and was expressed as a percentage.
All samples were detected using a LC-MS/MS (API 4000, ABI Company, USA) method, validated at the Institute of Clinical Pharmacology, Central South University (Changsha, China). Concentrations of CK and 20(S)-PPD were measured using a triple quadrupole tandem mass spectrometer in multiple reaction monitoring (MRM) mode, via a positive electrospray ionization source at m/z 621.4→ 160.8 for the CK and m/z 461.5→425.3 for 20(S)-PPD, with a dwell time of 200 ms. […]

[3] = geometric mean ratio FO vs. HF, n = 24

With CC(C)=CCC[C@](C)(O)C1CC[C@]2(C)C1[C@H](O)CC1[C@@]3(C)CC[C@H](O)C(C)(C)C3CC[C@]12C (stereo partly drawn) [20(S)-PPD, 20(S)-protopanaxadiol] as the compound, how does the “Mean plasma concentration at 96 h as fraction of Cmax” value [1] read?
Its value is < 1/20.

And the “lgAUClast GMR (90%CI)” value ([2]; FO vs. HF (Female), n = 12)?
Its value is 1.83 (1.27–2.64).

What about the “lgCmax GMR (90%CI)” value ([2]; FO vs. HF (Female), n = 12) of the same compound?
The value was 1.98 (1.47–2.66).

And the “lgAUClast GMR (90%CI)” value ([2]; FO vs. HF (Male), n = 12)?
Its value is 1.08 (0.69–1.70).

What about the “lgCmax GMR (90%CI)” value ([2]; FO vs. HF (Male), n = 12) of the same compound?
Its value is 1.12 (0.74–1.70).

What about the “lgAUClast GMR (90%CI)” value ([2]; M vs. F (FO), n = 12) of the same compound?
Its value is 0.34 (0.15–0.75).

What about the “lgCmax GMR (90%CI)” value ([2]; M vs. F (FO), n = 12) of the same compound?
The value was 0.48 (0.23–0.99).

And the “lgAUClast GMR (90%CI)” value ([2]; M vs. F (HF), n = 12)?
Its value is 0.57 (0.23–1.41).

And the “lgCmax GMR (90%CI)” value ([2]; M vs. F (HF), n = 12)?
Its value is 0.84 (0.38–1.84).

What about the AUC(0-inf) ([2]; both sexes, FO, all subjects) of the same compound?
Its AUC(0-inf) is 228 ± 96.1 ng·h/mL.

What about the AUC(0-t) ([2]; both sexes, FO, all subjects) of the same compound?
The AUC(0-t) was 161 ± 114 ng·h/mL.

And the AUC(0-inf) ([2]; both sexes, HF, all subjects)?
Its AUC(0-inf) is 163 ± 95.4 ng·h/mL.

And the AUC(0-t) ([2]; both sexes, HF, all subjects)?
Its AUC(0-t) is 116 ± 97.1 ng·h/mL.

What about the Tmax ([2]; female, FO) of the same compound?
Its Tmax is 26 h.

And the Tmax ([2]; female, HF)?
The Tmax was 26 h.

And the Cmax ([2]; female, FO, female)?
Its Cmax is 6.4 ± 2.7 ng/mL.

And the half-life ([2]; female, FO, female)?
The half-life was 19.9 ± 5.5 h.

And the Cmax ([2]; female, HF, female)?
Its Cmax is 3.5 ± 2.1 ng/mL.

And the half-life ([2]; female, HF, female)?
The half-life was 21.2 ± 7.6 h.

And the MRT inf ([2]; female, FO)?
Its MRT inf is 40.7 ± 7.5 h.

What about the MRT last ([2]; female, FO) of the same compound?
The MRT last was 36.3 ± 6.8 h.

What about the MRT inf ([2]; female, HF) of the same compound?
Its MRT inf is 46.7 ± 8.6 h.

What about the MRT last ([2]; female, HF) of the same compound?
Its MRT last is 37.5 ± 5.8 h.

What about the AUC(0-inf) ([2]; female, FO) of the same compound?
Its AUC(0-inf) is 225 ± 86.4 ng·h/mL.

What about the AUC(0-t) ([2]; female, FO) of the same compound?
The AUC(0-t) was 203 ± 88.8 ng·h/mL.

What about the AUC(0-inf) ([2]; female, HF) of the same compound?
The AUC(0-inf) was 154 ± 99.5 ng·h/mL.

And the AUC(0-t) ([2]; female, HF)?
The AUC(0-t) was 132 ± 97.4 ng·h/mL.

And the “lgAUClast GMR (90%CI)” value [2, 3]?
Its value is 1.41 (1.05–1.88).

And the “lgCmax GMR (90%CI)” value [2, 3]?
Its value is 1.49 (1.15–1.93).

And the Tmax ([2]; FO, all subjects)?
Its Tmax is 24.5 h.

What about the Tmax ([2]; HF, all subjects) of the same compound?
Its Tmax is 26 h.

And the half-life ([2]; FO (fasting overnight), all subjects)?
Its half-life is 19.3 ± 6 h.

And the Cmax ([2]; FO, all subjects)?
The Cmax was 5.7 ± 3.8 ng/mL.

What about the half-life ([2]; HF (high-fat meal), all subjects) of the same compound?
Its half-life is 21.2 ± 9.8 h.

What about the Cmax ([2]; HF, all subjects) of the same compound?
The Cmax was 3.7 ± 3 ng/mL.

What about the MRT inf ([2]; FO, all subjects) of the same compound?
The MRT inf was 38.5 ± 9.7 h.

And the MRT last ([2]; FO, all subjects)?
Its MRT last is 31.7 ± 8.4 h.

And the MRT inf ([2]; HF, all subjects)?
The MRT inf was 45.1 ± 9.5 h.

What about the MRT last ([2]; HF, all subjects) of the same compound?
The MRT last was 33.8 ± 6.9 h.

What about the Tmax ([2]; male, FO) of the same compound?
Its Tmax is 23 h.

And the Tmax ([2]; male, HF)?
Its Tmax is 26 h.

And the Cmax ([2]; male, FO, male)?
The Cmax was 4.9 ± 4.7 ng/mL.

And the half-life ([2]; male, FO, male)?
Its half-life is 18.2 ± 7.1 h.

And the Cmax ([2]; male, HF, male)?
The Cmax was 3.9 ± 3.8 ng/mL.

What about the half-life ([2]; male, HF, male) of the same compound?
Its half-life is 21.2 ± 13.7 h.

What about the MRT inf ([2]; male, FO) of the same compound?
Its MRT inf is 34.5 ± 12.5 h.

And the MRT last ([2]; male, FO)?
Its MRT last is 27 ± 7.4 h.

And the MRT inf ([2]; male, HF)?
Its MRT inf is 42.2 ± 11.1 h.

What about the MRT last ([2]; male, HF) of the same compound?
The MRT last was 30.2 ± 5.9 h.

What about the AUC(0-inf) ([2]; male, FO) of the same compound?
The AUC(0-inf) was 234 ± 121 ng·h/mL.

And the AUC(0-t) ([2]; male, FO)?
Its AUC(0-t) is 120 ± 124 ng·h/mL.

And the AUC(0-inf) ([2]; male, HF)?
The AUC(0-inf) was 178 ± 94.2 ng·h/mL.

And the AUC(0-t) ([2]; male, HF)?
Its AUC(0-t) is 100 ± 98.5 ng·h/mL.

What about the V/F ([2]; FO, all subjects) of the same compound?
Its V/F is 30,348 ± 22,300^a L.

And the V/F ([2]; FO, female)?
Its V/F is 33,100 ± 27,003^c L.

And the V/F ([2]; FO, male)?
The V/F was 25,304 ± 9,268^b L.

And the V/F ([2]; HF, all subjects)?
The V/F was 61,539 ± 64,303^a L.

And the V/F ([2]; HF, female)?
Its V/F is 64,980 ± 64,481^c L.

And the V/F ([2]; HF, male)?
The V/F was 55,230 ± 69,586^b L.
